{"source": "paper PMC12592502", "about": "“Unraveling the mechanisms behind the enhanced efficacy of β-lactam-based sideromycins” (Communications Biology, 2025)", "key": {"A. baumannii ATCC 19606": {"test_system": "A. baumannii ATCC 19606", "test": "MIC, broth microdilution (CLSI)", "type": "cell-based, Acinetobacter baumannii", "details": "for MIC: Acinetobacter baumannii", "protocol": "(§1) All bacterial strains (see description and sources Table S1) were stored at −80 °C, and grown on tryptone soya agar (TSA) at 35 °C. The iron-deprived (ID)-MHBCA (cation-adjusted Muller-Hinton Broth, Becton Dickinson, Mississauga, ON, Canada) medium was prepared as reported by refs. [21],[50]. Briefly, MHBCA was treated with 10% Chelex® 50-100 mesh (Sigma) and stirred for 6 h at room temperature. The resin was removed by filtration. Divalent Ca^2+ (CaCl2), Mg^2+ (MgCl2), and Zn^2+(ZnSO4), were then added in the iron-depleted medium at 22, 12, and 1 μg/ml respectively. Finally, the pH was adjusted to 7.3, and the medium was sterilized with a 0.2-μm filter. Regular MHBCA (i.e., not treated with Chelex®) was used to compare the inhibitory activity of conjugates in iron-sufficient conditions. The resin used for Chelex treatment was always fresh and had never been regenerated, ensuring consistent iron removal.\n(§2) Minimal inhibitory concentrations (MICs) were performed using a broth microdilution technique according to the Clinical and Laboratory Standards Institute (CLSI) guidelines. MICs were determined in MHBCA and in ID-MHBCA. To check the impact of β-lactamases, MICs in the presence of a β-lactamase inhibitor were also determined. The inhibitor was homogenized at 2X the final concentration and added to the bacterial inoculum just before distributing cells into the wells containing the drug dilutions. The final concentration of each inhibitor was 4 μg/mL for clavulanic acid (tested against K. pneumoniae) and 200 μg/mL for 3-aminophenylboronic acid (tested against P. aeruginosa and A. baumannii)."}, "E. coli ATCC 25922": {"test_system": "E. coli ATCC 25922", "test": "MIC, broth microdilution (CLSI)", "type": "cell-based, Escherichia coli", "details": "for MIC: Escherichia coli", "protocol": "as §1, with “conditions.” for “conditions. The resin used for Chelex treatment was always fresh and had never been regenerated, ensuring consistent iron removal.”\nas §2"}, "[1]": {"test_system": "P. aeruginosa 1625 ΔmexAB-oprM, ΔmexEF-oprN", "test": "MIC, efflux pump mutant", "type": "cell-based, Pseudomonas aeruginosa", "details": "Pseudomonas aeruginosa", "protocol": "as §2"}, "[2]": {"test_system": "P. aeruginosa 1624 ΔmexCD-oprJ, ΔmexEF-oprN", "test": "MIC, efflux pump mutant", "type": "cell-based, Pseudomonas aeruginosa", "details": "Pseudomonas aeruginosa", "protocol": "as §2"}, "E. coli lptD4213": {"test_system": "E. coli lptD4213", "test": "MIC, hyperpermeable mutant", "type": "cell-based, Escherichia coli", "details": "Escherichia coli", "protocol": "as §1, §2"}, "E. coli Δfiu": {"test_system": "E. coli Δfiu", "test": "MIC, Keio mutant", "type": "cell-based, Escherichia coli", "protocol": "as §1, with “conditions.” for “conditions. The resin used for Chelex treatment was always fresh and had never been regenerated, ensuring consistent iron removal.”\nas §2"}, "E. coli ΔfhuA": {"test_system": "E. coli ΔfhuA", "test": "MIC, Keio mutant", "type": "cell-based, Escherichia coli", "details": "Escherichia coli, ID-MHBCA", "protocol": "as §1, with “conditions.” for “conditions. The resin used for Chelex treatment was always fresh and had never been regenerated, ensuring consistent iron removal.”\nas §2"}, "E. coli ΔcirA": {"test_system": "E. coli ΔcirA", "test": "MIC, Keio mutant", "type": "cell-based, Escherichia coli", "details": "Escherichia coli", "protocol": "as §1, with “conditions.” for “conditions. The resin used for Chelex treatment was always fresh and had never been regenerated, ensuring consistent iron removal.”\nas §2"}, "[3]": {"test_system": "P. aeruginosa 2302 MexAB, MexCD, MexEF upregulated", "test": "MIC, efflux pump overexpressing strain", "type": "cell-based, Pseudomonas aeruginosa", "details": "Pseudomonas aeruginosa", "protocol": "as §2"}, "K. pneumoniae ATCC 13883": {"test_system": "K. pneumoniae ATCC 13883", "test": "MIC, broth microdilution (CLSI)", "type": "cell-based, Klebsiella pneumoniae", "details": "for MIC with β-lactamase inhibitor (βI): + 4 μg/mL clavulanic acid", "protocol": "as §1, §2"}, "[4]": {"details": "ID-MHBCA, 0 and 1 µg/mL supplemental iron (Table S2)"}, "[5]": {"details": "ID-MHBCA, 1 versus 0 µg/mL supplemental iron (peer review file table)"}}, "note": "Like-named read-outs stand apart in the source and are kept apart here.", "data": [{"smiles": "CC1(C)SC2C(NC(=O)C(NC(=O)CN(CCCCNC(=O)c3cccc(O)c3O)C(=O)c3cccc(O)c3O)c3ccccc3)C(=O)N2C1C(=O)O", "note": "(stereo not drawn) [BAMP, bis-catechol (azotochelin)-ampicillin]", "values": [{"measurement": "MIC", "setting": "A. baumannii ATCC 19606; ATCC19606, ID-MHBCA (−), 0 µg/mL supplemental iron, read-out: MIC", "value": 0.2, "unit": "µM"}, {"measurement": "MIC", "setting": "A. baumannii ATCC 19606; ATCC19606, ID-MHBCA + 0.1 µg/mL supplemental iron, read-out: MIC", "value": 0.4, "unit": "µM"}, {"measurement": "MIC", "setting": "A. baumannii ATCC 19606; ATCC19606, ID-MHBCA + 1 µg/mL supplemental iron, read-out: MIC", "value": 1.6, "unit": "µM"}, {"measurement": "MIC", "setting": "A. baumannii ATCC 19606; ATCC19606, ID-MHBCA, + 200 μg/mL APB, read-out: MIC with β-lactamase inhibitor (βI)", "value": 0.1, "unit": "µM"}, {"measurement": "MIC", "setting": "A. baumannii ATCC 19606; ATCC19606, MHBCA (+), no inhibitor, read-out: MIC", "value": 0.4, "unit": "µM"}, {"measurement": "MIC", "setting": "A. baumannii ATCC 19606; ATCC19606, MHBCA, + 200 μg/mL APB, read-out: MIC with β-lactamase inhibitor (βI)", "value": 0.2, "unit": "µM"}, {"measurement": "MIC ratio unconjugated β-lactam/conjugate", "setting": "A. baumannii ATCC 19606; ID-MHBCA", "value": ">1024"}, {"measurement": "MIC ratio 0/1", "setting": "A. baumannii ATCC 19606; [4]", "value": 8}, {"measurement": "MIC ratio 1/0", "setting": "A. baumannii ATCC 19606; [5]", "value": 8}, {"measurement": "MIC ratio unconjugated β-lactam/conjugate", "setting": "A. baumannii ATCC 19606; MHBCA", "value": ">512"}, {"measurement": "MIC in combination with PAβN", "setting": "A. baumannii ATCC 19606; MHBCA, + 25 µg/mL PAβN", "value": "> 6.3", "unit": "µM"}, {"measurement": "MIC", "setting": "E. coli ATCC 25922; ATCC25922, ID-MHBCA + 0.1 µg/mL supplemental iron", "value": 0.1, "unit": "µM"}, {"measurement": "MIC", "setting": "E. coli ATCC 25922; ATCC25922, ID-MHBCA + 1 µg/mL supplemental iron", "value": 0.2, "unit": "µM"}, {"measurement": "MIC", "setting": "E. coli ATCC 25922; ATCC25922, MHBCA (+)", "value": 0.1, "unit": "µM"}, {"measurement": "MIC", "setting": "E. coli ATCC 25922; ATCC25922, iron-deprived ID-MHBCA (−), 0 µg/mL supplemental iron", "value": 0.05, "unit": "µM"}, {"measurement": "MIC ratio unconjugated β-lactam/conjugate", "setting": "E. coli ATCC 25922; ID-MHBCA", "value": 256}, {"measurement": "MIC ratio 0/1", "setting": "E. coli ATCC 25922; [4]", "value": 4}, {"measurement": "MIC ratio 1/0", "setting": "E. coli ATCC 25922; [5]", "value": 4}, {"measurement": "MIC ratio unconjugated β-lactam/conjugate (AMP/BAMP, LOR/BLOR, CEF/MCEF)", "setting": "E. coli ATCC 25922; MHBCA", "value": 128}, {"measurement": "MIC", "setting": "[1]", "value": 0.2, "unit": "µM"}, {"measurement": "MIC", "setting": "[2]", "value": 0.4, "unit": "µM"}, {"measurement": "MIC", "setting": "E. coli lptD4213; LPTD4213, lptD4213, ID-MHBCA (−)", "value": 0.024, "unit": "µM"}, {"measurement": "MIC", "setting": "E. coli lptD4213; LPTD4213, lptD4213, MHBCA (+)", "value": 0.05, "unit": "µM"}, {"measurement": "MIC", "setting": "E. coli Δfiu; Escherichia coli, ID-MHBCA", "value": 0.024, "unit": "µM"}, {"measurement": "MIC", "setting": "E. coli Δfiu; Escherichia coli, MHBCA", "value": "0.1 to 0.4", "unit": "µM"}, {"measurement": "MIC", "setting": "E. coli Δfiu; MHBCA", "value": 0.2, "unit": "µM"}, {"measurement": "MIC", "setting": "E. coli ΔfhuA", "value": 0.1, "unit": "µM"}, {"measurement": "MIC", "setting": "E. coli ΔcirA; ID-MHBCA", "value": "0.2 to 13", "unit": "µM"}, {"measurement": "MIC", "setting": "E. coli ΔcirA; MHBCA", "value": 13, "unit": "µM"}, {"measurement": "MIC", "setting": "[3]", "value": 0.4, "unit": "µM"}, {"measurement": "MIC ratio unconjugated β-lactam/conjugate", "setting": "K. pneumoniae ATCC 13883; ID-MHBCA", "value": "No activity"}, {"measurement": "MIC", "setting": "K. pneumoniae ATCC 13883; ID-MHBCA (−), 0 µg/mL supplemental iron", "value": ">200", "unit": "µM"}, {"measurement": "MIC with β-lactamase inhibitor (βI)", "setting": "K. pneumoniae ATCC 13883; ID-MHBCA", "value": 0.4, "unit": "µM"}, {"measurement": "MIC", "setting": "K. pneumoniae ATCC 13883; Klebsiella pneumoniae, ATCC13883, ID-MHBCA (−), 0 µg/mL supplemental iron", "value": "> 200", "unit": "µM"}, {"measurement": "MIC", "setting": "K. pneumoniae ATCC 13883; Klebsiella pneumoniae, ATCC13883, ID-MHBCA + 1 µg/mL supplemental iron", "value": "> 200", "unit": "µM"}, {"measurement": "MIC", "setting": "K. pneumoniae ATCC 13883; Klebsiella pneumoniae, ATCC13883, MHBCA (+)", "value": "> 200", "unit": "µM"}, {"measurement": "MIC ratio unconjugated β-lactam/conjugate", "setting": "K. pneumoniae ATCC 13883; MHBCA", "value": "No activity"}, {"measurement": "MIC", "setting": "K. pneumoniae ATCC 13883; MHBCA (+)", "value": ">200", "unit": "µM"}, {"measurement": "MIC with β-lactamase inhibitor (βI)", "setting": "K. pneumoniae ATCC 13883; MHBCA", "value": 1.6, "unit": "µM"}]}]}
